# Patent US9056099B2, “Compositions and methods for treating viral diseases” (NovaDrug, LLC, priority 2010, dated 2015)
# System: HCV (JFH-1) in Huh7-1 cells
# Assay: Assay for anti-HCV efficacy: JFH-1 HCV infection of Huh7-1 cultures, intracellular HCV RNA by RT-qPCR
# Format: cell-based, Hepatitis C virus
# Settings: Compound Example 1 series; % viral titer at 5 μM or 15 μM; HCV-infected Huh7-1 cultures
# From the text: In the past, HCV studies involved mainly infected patients and chimpanzees. Recently, a robust HCV infection system was developed with cells derived from the Huh-7 human hepatoma cell line (see, for example, Yu et al., “Development of a cell-based hepatitis C virus infection fluorescent resonance energy transfer assay for high-throughput antiviral compound screening” Antimicrob Agents Chemother. 2009 53:4311-4319 for additional details regarding growing virus stocks, maintenance of the Huh-7 cells, infection parameters, and HCV titers determinations; and Yu & Uprichard “Cell-based hepatitis C virus infection fluorescence resonance energy transfer (FRET) assay for antiviral compound screening” Curr Protoc Microbiol. 2010; Chapter 17: Unit 17.5). Briefly, the assay is based on the unique JFH-1 HCV consensus cDNA derived from an HCV patient. Using reverse genetics, the infectious virus can be rescued from this HCV clone. The recovered viable JFH virus can be passaged serially in Huh-7 cells. For this reason, this system is amenable for testing the activity of potential drugs for their anti-HCV efficacy. The antiviral activity of the compounds described herein is tested in this system.
# Initially, 6×10^3 Huh7-1 cells are incubated overnight in each well of collagen-coated BioCoat 96-well plates (BD Biosciences, Bedford, Mass.) in 0.2 mL 10% Medium composed of Dulbecco's modified Eagle's medium supplemented with 10% fetal bovine serum. Subsequently, at 2 day intervals, the cultures are replenished with fresh 0.2 mL 10% Medium. Once the cultures become confluent, they are continually replenished at 2 day intervals with fresh 0.2 mL 10% Medium that also includes 1% dimethyl sulfoxide (DMSO). After 20 days of these replenishments, the Huh7-1 cultures are incubated with fresh 1% Medium (same as 10% Medium except that the serum level is 1%) containing HCV at a multiplicity of infection (MOI) of 0.05 focus forming units (ffu)/cell. The HCV (JFH-1wt Huh7) stock titer is 1.5×10^5 ffu/mL. The next day (day 1 post-infection) and 2 days later (day 3 post-infection) the media are replenished with fresh 1% Medium containing the test compounds dissolved in DMSO. On the 5th day of treatment with the compounds, cell lysates are collected for RNA isolation and Real Time-quantitative Reverse Transcription Polymerase Chain Reaction (RT-qPCR) and culture media are collected for cytotoxicity analysis.
# Total RNA is isolated from cells by the guanidine thiocyanate method using standard protocols. One μg RNA is used for cDNA synthesis using TaqMan reverse transcription reagents (Applied Biosystems, Foster City, Calif.) followed by real-time PCR using an Applied Biosystems 7300 real-time thermocycler. Illustrative thermal cycling consists of initial denaturation of 10 min at 95° C. followed by 40 cycles of denaturation (15 s at 95° C.) and annealing/extension (1 m at 60° C.). HCV and human glyceraldehyde-3-phosphate dehydrogenase (GAPDH) RNA levels are determined relative to a standard curve of serial dilutions of plasmid containing JFH-1 HCV or GAPDH cDNA. The PCR primers used to detect GAPDH and HCV are illustratively: GAPDH (NMX002046) 5′-GAAGGTGAAGGTCGGAGTC-3′ (SEQ ID NO: 5) (sense) and 5′-[…]-3′ (SEQ ID NO: 6) (anti-sense) JFH-1 HCV (AB047639) 5′-TCTGCGGAACCGGTGAGTA-3′ (SEQ ID NO: 7) (sense) and 5′-TCAGGCAGTACCACAAGGC-3′ (SEQ ID NO: 8) (anti-sense).
# FIGS. 1-7 illustrate the intracellular HCV RNA levels when cultures are incubated with the selected test compounds at the doses shown. When HCV RNA levels are compared among the samples, the data may indicate that the compounds cause a dose dependent decrease in HCV RNA levels relative to the mock-treated (no compound added) HCV infected control.
row,SMILES,Activity (viral titer)
1,O=C(c1ccccc1F)N1CC(c2ccsc2)C2CN(Cc3ccccc3)CCC21 (stereo not shown),− (>60% viral titer at 15 μM (highest concentration tested))
2,O=C(c1cccnc1)N1CC(c2ccc(F)cc2)C2CN(Cc3ccccc3Cl)CCC21 (stereo not shown),− (>60% viral titer at 15 μM (highest concentration tested))
3,O=C(c1ccccc1F)N1C[C@H](c2ccsc2)[C@H]2CN(Cc3cccc(F)c3)CC[C@H]21,++ (≦60% viral titer at 5 μM)
4,O=C(c1ccccn1)N1CC(c2ccc(F)cc2)C2CN(Cc3cccnc3)CCC21 (stereo not shown),− (>60% viral titer at 15 μM (highest concentration tested))
5,COc1cccc([C@H]2CN(C(=O)c3ccccc3)[C@@H]3CCN(Cc4ccccc4F)C[C@H]23)c1,+ (≦60% viral titer at 15 μM)
6,O=C(c1ccccc1)N1CC(c2ccc(F)cc2)C2CN(Cc3ccccc3)CCC21 (stereo not shown),++ (≦60% viral titer at 5 μM)
7,Cc1ccc(CN2CC[C@@H]3[C@H](C2)[C@@H](c2ccsc2)CN3C(=O)c2ccccc2F)cc1,− (>60% viral titer at 15 μM (highest concentration tested))
8,COc1cccc(C2CN(C(=O)c3ccccc3)C3CCN(Cc4ccc(C)cc4)CC23)c1 (stereo not shown),+ (≦60% viral titer at 15 μM)
9,O=C(c1ccccc1F)N1C[C@H](c2ccsc2)[C@H]2CN(Cc3cccnc3)CC[C@H]21,− (>60% viral titer at 15 μM (highest concentration tested))
10,O=C(c1ccccn1)N1CC(c2ccc(F)cc2)C2CN(Cc3ccc(Cl)cc3)CCC21 (stereo not shown),− (>60% viral titer at 15 μM (highest concentration tested))
11,O=C(c1ccncc1)N1CC(c2ccc(F)cc2)C2CN(Cc3ccsc3)CCC21 (stereo not shown),− (>60% viral titer at 15 μM (highest concentration tested))
12,O=C(c1cccnc1)N1C[C@H](c2ccc(F)cc2)[C@H]2CN(Cc3ccc(Cl)cc3)CC[C@H]21,+++ (≦30% viral titer at 5 μM)
13,COc1cccc([C@H]2CN(C(=O)c3ccccc3)[C@@H]3CCN(Cc4ccccc4)C[C@H]23)c1,− (>60% viral titer at 15 μM (highest concentration tested))
14,O=C(c1ccc(F)cc1)N1C[C@H](c2ccsc2)[C@H]2CN(Cc3cccs3)CC[C@H]21,− (>60% viral titer at 15 μM (highest concentration tested))
15,O=C(c1ccccc1)N1C[C@H](c2ccc(F)cc2)[C@H]2CN(Cc3ccc(F)cc3)CC[C@H]21,+++ (≦30% viral titer at 5 μM)
16,Cc1cccc(CN2CCC3C(C2)C(c2ccc(F)cc2)CN3C(=O)c2ccccn2)c1 (stereo not shown),− (>60% viral titer at 15 μM (highest concentration tested))
17,O=C(c1cccs1)N1C[C@H](c2ccc(F)cc2)[C@H]2CN(Cc3ccccc3)CC[C@H]21,− (>60% viral titer at 15 μM (highest concentration tested))
18,COc1cccc(CN2CCC3C(C2)C(c2ccc(F)cc2)CN3C(=O)c2ccccc2)c1 (stereo not shown),+++ (≦30% viral titer at 5 μM)
19,O=C(c1ccccc1F)N1C[C@H](c2ccsc2)[C@H]2CN(Cc3ccccn3)CC[C@H]21,− (>60% viral titer at 15 μM (highest concentration tested))
20,O=C(c1cccnc1)N1C[C@H](c2ccc(F)cc2)[C@H]2CN(Cc3ccccc3)CC[C@H]21,++ (≦60% viral titer at 5 μM)
21,COc1cccc([C@H]2CN(C(=O)c3ccccc3)[C@@H]3CCN(Cc4ccncc4)C[C@H]23)c1,− (>60% viral titer at 15 μM (highest concentration tested))
22,COc1cccc(CN2CCC3C(C2)C(c2ccc(F)cc2)CN3C(=O)c2ccccn2)c1 (stereo not shown),− (>60% viral titer at 15 μM (highest concentration tested))
23,COc1ccc(CN2CCC3C(C2)C(c2ccc(F)cc2)CN3C(=O)c2ccccn2)cc1 (stereo not shown),− (>60% viral titer at 15 μM (highest concentration tested))
24,O=C(c1ccncc1)N1CC(c2ccsc2)C2CN(Cc3cccs3)CCC21 (stereo not shown),− (>60% viral titer at 15 μM (highest concentration tested))
25,O=C(c1ccncc1)N1CC(c2ccc(F)cc2)C2CN(Cc3cccs3)CCC21 (stereo not shown),− (>60% viral titer at 15 μM (highest concentration tested))

# Same assay, conditions: Compound Example 2 series; % viral titer at 5 μM or 15 μM; HCV-infected Huh7-1 cultures
row,SMILES,Activity (viral titer)
1,O=C(c1ccncc1)N1C[C@@H](c2ccc(F)cc2)[C@@H]2CN(Cc3ccccc3Cl)CC[C@@H]21,+++ (≦30% viral titer at 5 μM)
2,Cc1ccc(CN2CCC3C(C2)C(c2ccsc2)CN3C(=O)c2ccncc2)cc1 (stereo not shown),− (>60% viral titer at 15 μM (highest concentration tested))
3,COc1cccc(CN2CC[C@H]3[C@@H](C2)[C@H](c2ccc(F)cc2)CN3C(=O)c2cccnc2)c1,+ (≦60% viral titer at 15 μM)
4,Cc1ccccc1CN1CC[C@H]2[C@@H](C1)[C@H](c1ccsc1)CN2C(=O)c1ccncc1,− (>60% viral titer at 15 μM (highest concentration tested))
5,O=C(c1ccc(F)cc1)N1CC(c2ccsc2)C2CN(Cc3ccccc3F)CCC21 (stereo not shown),− (>60% viral titer at 15 μM (highest concentration tested))
6,O=C(c1ccncc1)N1CC(c2ccc(F)cc2)C2CN(Cc3ccccc3)CCC21 (stereo not shown),− (>60% viral titer at 15 μM (highest concentration tested))
7,Cc1ccc(CN2CCC3C(C2)C(c2ccsc2)CN3C(=O)c2ccc(F)cc2)cc1 (stereo not shown),− (>60% viral titer at 15 μM (highest concentration tested))
8,O=C(c1ccccc1)N1CC(c2ccsc2)C2CN(Cc3ccc(F)c(F)c3)CCC21 (stereo not shown),++ (≦60% viral titer at 5 μM)
9,O=C(c1ccccc1)N1CC(c2ccsc2)C2CN(Cc3ccccc3)CCC21 (stereo not shown),++ (≦60% viral titer at 5 μM)
10,O=C(c1ccncc1)N1C[C@@H](c2ccc(F)cc2)[C@@H]2CN(Cc3ccc(F)cc3)CC[C@@H]21,− (>60% viral titer at 15 μM (highest concentration tested))
11,O=C(c1ccncc1)N1CC(c2ccc(F)cc2)C2CN(Cc3ccccc3F)CCC21 (stereo not shown),− (>60% viral titer at 15 μM (highest concentration tested))
12,COc1cccc(CN2CC[C@H]3[C@@H](C2)[C@H](c2ccsc2)CN3C(=O)c2ccncc2)c1,− (>60% viral titer at 15 μM (highest concentration tested))
